Here are results for two compounds from patent publication US9045438B2 (Silanes S.A. de C.V., priority 2002, dated 2015).

In data set [1] the test system is patients with uncontrolled type 2 diabetes mellitus. The experiment in a line: Random double blind clinical study in patients with uncontrolled type 2 diabetes mellitus, 90 days. To be noted: uncontrolled type 2 diabetes patients, final evaluation 90 days, dose by basal glycemia. It counts as in vivo, human. The text has this:
Criteria for inclusion were as follows: • 1. […] Age 40 to 65; • 3. Capacity for deglutition; and • 4 Voluntary consent Criteria for exclusion were as follows: • 1. Pregnancy; • 2. Insulin treatment; and • 3. Personal background of systemic diseases such as: • a) Cardiac insufficiency; and • b) Hepatic or chronic hepatopathic insufficiency. • 4 Background of significant chronic complications with type 2 diabetes mellitus: • a) Renal insufficiency; • b) Ischemic cardiopathy; • c) Cerebral vascular disease; and • d) Visceral neuropathy. • 5. Background of short-term terminal diseases, such as: • a) Cancer; and • b) HIV • 6. […] Known intolerance or allergies to sulfonylureas or biguanides. Criteria for exclusion from the therapy, but not from the statistical analysis: • 1. Presence of severe hypoglycemia at the maximum dosages used in the study; • 2. Presence of severe hypoglycemia at the minimum dosages used in the study; • 3. Presence of intolerable undesirable effects with any of the medications used in the study; • 4. Failure to follow the medical treatment indicated; • 5. Failure to attend scheduled visits; • 6. Intercurrent illnesses or accidents that warrant hospitalization; • 7. […] Voluntary withdrawal from the study. The variables studied were as follows: • Dependent variables: • a) Glycemia between meals; • b) Glucosylated hemoglobin; • c) β cell function; • d) Insulin resistance; and • e) Metabolic profile. • Independent variable: • a) Hypoglycemic therapy. • Intervening variables: • a) Age; • b) Sex; • c) Body mass index; and • d) Evolution of diabetes. Clinical measurements and basal measurement of glycemia between meals, glucosylated hemoglobin, total cholesterol, cholesterol of high density lipoproteins, triglycerides, creatinine, uric acid, glutemic-oxaloacetic transaminase, glutemic-pyruvic transaminase, lactic dehydrogenase, alkaline and insulin phosphatase. Random assignment of patients to each group and pharmacological intervention in accordance with concentration of basal glycemia: [table] Clinical evaluation 30 and 60 days after beginning the study, measuring glycemia between meals and lactic dehydroginase. Final clinical evaluations 90 days after the study begins, measuring glycemia between meals, glucosylated hemoglobin, total cholesterol, high density lipoprotein cholesterol, triglyceride, creatinine, uric acid, glutemic-oxaloacetic transaminase, glutemic-pyruvic transaminase, lactic dehydrogenase, alkaline and insulin phosphatase. Undesirable effects were reported on a special record sheet, specifying each of the clinical manifestations considered probable, possible or directly related to the use of the drugs ingested.

The subject of data set [2] is type 2 diabetic patients. To be noted: cited from earlier work.
Data set [3] is described as follows: clinical. To be noted: both, human, in vivo.

Consider `CN(C)C(=N)N=C(N)N` [metformin], for which, in data set [1], the “Blood glucose between meals (change)” value was “+0.75”, the “Glucosylated hemoglobin HbA1c (change)” value is reported as “+0.06” and the “Post-prandial blood glucose (change)” value is recorded as “+1.08”.
For the compound `CCC1=C(C)CN(C(=O)NCCc2ccc(S(=O)(=O)NC(=O)N[C@H]3CC[C@H](C)CC3)cc2)C1=O` [glimepiride], in data set [1], the “Blood glucose between meals (change)” value is “+0.68”, the “Glucosylated hemoglobin HbA1c (change)” value is recorded as “+0.25” and the “Post-prandial blood glucose (change)” value is reported as “+0.99”. For the same compound, the “potency relative to glibenclamide” value in data set [2] (R. Groomis et al., Endocrinology 13:117-121 (2000)) is listed as “two times higher”. Further, the “incidence of severe hypoglycemia versus glibenclamide” value in data set [2] (type 2 diabetic patients, A. Holstein et al. (2000)) was “lower incidence”. Also, the half-life in data set [3] was 3.73 h.
